Molecules are shown by their SMILES.

A short description of series [1]: water solubility of tebufelone. Particulars: water (essentially water-insoluble). It is filed as physicochemical.
Series [2] can be described thus: absorption from the gastrointestinal tract after peroral dosing. Type of series: in vivo. The note with it: dosed in conventional solid dosage forms, such as tablets or powders in capsules.

By solubility is commonly meant the concentration that dissolves in the medium under given conditions. `C#CCCCC(=O)c1cc(C(C)(C)C)c(O)c(C(C)(C)C)c1` [tebufelone, 1-[3,5-bis(1,1-dimethylethyl)-4-hydroxyphenyl]-5-hexyn-1-one] gave a solubility in series [1] of under 1 µg/mL. Also, in series [2], the “absorption of tebufelone from the gastrointestinal tract” value is recorded as “quite low”.

Values taken from patent EP0431659B1, “Pharmaceutical compositions of tebufelone” (THE PROCTER & GAMBLE COMPANY, priority 1989, dated 1991).
